Experimental data published in US20110086759A1, “CHEMICAL COMPOUNDS” (SYNGENTA CROP PROTECTION, INC., priority 2007, published 2011).

Assays:
Type in all cases: in vivo
[1] = test system: Echinochloa crus-galli (ECHCG); assay: Pre-emergence biological efficacy, glasshouse pot test; conditions: 312 h
Summary of the method: (§1)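 Damage rated 0–100 (100 = total kill) 13 days post-spray. Pots of standard soil were sown and sprayed after one day with test compound at 1000 or 250 g/ha in acetone/water (50:50) plus 0.5% Tween 20.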

[2] = test system: Solanum nigrum (SOLNI); assay: as above; conditions: 312 h
Summary of the method: as §1

[3] = test system: Ipomea hederaceae (IPOHE); assay: as above; conditions: Ipomoea hederacea, 312 h
Summary of the method: as §1

[4] = test system: Alopecurus myosuroides (ALOMY); assay: as above; conditions: 312 h
Summary of the method: as §1

[5] = test system: Amaranthus retoflexus (AMARE); assay: as above; conditions: Amaranthus retroflexus, 312 h
Summary of the method: as §1

[6] = test system: Setaria faberi (SETFA); assay: as above; conditions: 312 h
Summary of the method: as §1

[7] = test system: Echinochloa crus-galli (ECHCG); assay: Post-emergence biological efficacy, glasshouse pot test; conditions: 312 h
Summary of the method: (§2)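 Pot-grown weeds were sprayed 8 days after sowing with test compound in acetone/water (50:50) with 0.5% Tween 20 at 1000 or 250 g/ha. Glasshouse at 24/16° C day/night, 14 h light, 65% humidity. Damage scored 0-100 (100 = total damage) after 13 days.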

[8] = test system: Solanum nigrum (SOLNI); assay: as above; conditions: 312 h
Summary of the method: as §2

[9] = test system: Ipomea hederaceae (IPOHE); assay: as above; conditions: Ipomoea hederacea, 312 h
Summary of the method: as §2

[10] = test system: Alopecurus myosuroides (ALOMY); assay: as above; conditions: 312 h
Summary of the method: as §2

[11] = test system: Amaranthus retoflexus (AMARE); assay: as above; conditions: Amaranthus retroflexus, 312 h
Summary of the method: as §2

[12] = test system: Setaria faberi (SETFA); assay: as above; conditions: 312 h
Summary of the method: as §2

[13] = pre-emergence, rate 1,000 g/ha, evaluated after 13 days (100=total damage to plant; 0=no damage), read-out: Percentage damage caused to weed species, ECHCG
[14] = pre-emergence, rate 1,000 g/ha, evaluated after 13 days (100=total damage to plant; 0=no damage), read-out: Percentage damage caused to weed species, SOLNI
[15] = pre-emergence, rate 1,000 g/ha, evaluated after 13 days (100=total damage to plant; 0=no damage), read-out: Percentage damage caused to weed species, IPOHE
[16] = pre-emergence, rate 1,000 g/ha, evaluated after 13 days (100=total damage to plant; 0=no damage), read-out: Percentage damage caused to weed species, ALOMY
[17] = pre-emergence, rate 1,000 g/ha, evaluated after 13 days (100=total damage to plant; 0=no damage), read-out: Percentage damage caused to weed species, AMARE
[18] = pre-emergence, rate 1,000 g/ha, evaluated after 13 days (100=total damage to plant; 0=no damage), read-out: Percentage damage caused to weed species, SETFA
[19] = Rate 1,000 g/ha, post-emergence spray, evaluated after 13 days (100=total damage to plant; 0=no damage to plant), read-out: Percentage damage caused to weed species, post-emergence, ECHCG
[20] = Rate 1,000 g/ha, post-emergence spray, evaluated after 13 days (100=total damage to plant; 0=no damage to plant), read-out: Percentage damage caused to weed species, post-emergence, SOLNI
[21] = Rate 1,000 g/ha, post-emergence spray, evaluated after 13 days (100=total damage to plant; 0=no damage to plant), read-out: Percentage damage caused to weed species, post-emergence, IPOHE
[22] = Rate 1,000 g/ha, post-emergence spray, evaluated after 13 days (100=total damage to plant; 0=no damage to plant), read-out: Percentage damage caused to weed species, post-emergence, ALOMY
[23] = Rate 1,000 g/ha, post-emergence spray, evaluated after 13 days (100=total damage to plant; 0=no damage to plant), read-out: Percentage damage caused to weed species, post-emergence, AMARE
[24] = Rate 1,000 g/ha, post-emergence spray, evaluated after 13 days (100=total damage to plant; 0=no damage to plant), read-out: Percentage damage caused to weed species, post-emergence, SETFA

SMILES | pest or weed control at 1000 g/ha [1, 13] [%] | pest or weed control at 1000 g/ha [2, 14] [%] | pest or weed control at 1000 g/ha [3, 15] [%] | pest or weed control at 1000 g/ha [4, 16] [%] | pest or weed control at 1000 g/ha [5, 17] [%] | pest or weed control at 1000 g/ha [6, 18] [%] | pest or weed control at 1000 g/ha [7, 19] [%] | pest or weed control at 1000 g/ha [8, 20] [%] | pest or weed control at 1000 g/ha [9, 21] [%] | pest or weed control at 1000 g/ha [10, 22] [%] | pest or weed control at 1000 g/ha [11, 23] [%] | pest or weed control at 1000 g/ha [12, 24] [%] | further results
COC(=O)c1nc(C2CC2)nc(NCc2cccnc2)c1Cl [Compound 4-156, 5-Chloro-2-cyclopropyl-6-methoxycarbonyl-4-(pyrid-3-ylmethyl-amino)pyrimidine] |  |  |  |  |  |  |  |  |  |  |  |  | pest or weed control at 1000 g/ha ([1]; pre-emergence, 1,000 g/ha, evaluated after 13 days (100=total damage; 0=no damage), read-out: Percentage damage ECHCG): 0%; pest or weed control at 1000 g/ha ([2]; pre-emergence, 1,000 g/ha, evaluated after 13 days (100=total damage; 0=no damage), read-out: Percentage damage SOLNI): 30%; pest or weed control at 1000 g/ha ([3]; pre-emergence, 1,000 g/ha, evaluated after 13 days (100=total damage; 0=no damage), read-out: Percentage damage IPOHE): 80%; pest or weed control at 1000 g/ha ([4]; pre-emergence, 1,000 g/ha, evaluated after 13 days (100=total damage; 0=no damage), read-out: Percentage damage ALOMY): 0%; pest or weed control at 1000 g/ha ([5]; pre-emergence, 1,000 g/ha, evaluated after 13 days (100=total damage; 0=no damage), read-out: Percentage damage AMARE): 50%; pest or weed control at 1000 g/ha ([6]; pre-emergence, 1,000 g/ha, evaluated after 13 days (100=total damage; 0=no damage), read-out: Percentage damage SETFA): 0%; pest or weed control at 1000 g/ha ([7]; post-emergence, 1,000 g/ha, evaluated after 13 days (100=total damage; 0=no damage), read-out: Percentage damage caused to weed species, ECHCG): 50%; pest or weed control at 1000 g/ha ([8]; post-emergence, 1,000 g/ha, evaluated after 13 days (100=total damage; 0=no damage), read-out: Percentage damage caused to weed species, SOLNI): 90%; pest or weed control at 1000 g/ha ([9]; post-emergence, 1,000 g/ha, evaluated after 13 days (100=total damage; 0=no damage), read-out: Percentage damage caused to weed species, IPOHE): 70%; pest or weed control at 1000 g/ha ([10]; post-emergence, 1,000 g/ha, evaluated after 13 days (100=total damage; 0=no damage), read-out: Percentage damage caused to weed species, ALOMY): 30%; pest or weed control at 1000 g/ha ([11]; post-emergence, 1,000 g/ha, evaluated after 13 days (100=total damage; 0=no damage), read-out: Percentage damage caused to weed species, AMARE): 100%; pest or weed control at 1000 g/ha ([12]; post-emergence, 1,000 g/ha, evaluated after 13 days (100=total damage; 0=no damage), read-out: Percentage damage caused to weed species, SETFA): 70%
CCCN(Cc1ccccc1)c1nc(C2CC2)nc(C(=O)OC)c1Cl [Compound 145-60] | 0 | 70 | 40 | 0 | 100 | 10 | 40 | 80 | 80 | 20 | 90 | 70 | 
COCCN(C/C=C/c1ccco1)c1nc(C2CC2)nc(C(=O)OC)c1Cl [Compound 160-256, 5-Chloro-2-cyclopropyl-4-[N-(3-furan-2-yl-prop-2-enyl)-N-2-methoxyethyl-amino]-6-methoxycarbonyl-pyrimidine] | 0 | 10 | 10 | 10 | 20 | 0 | 0 | 60 | 50 | 0 | 90 | 40 | 
COC(=O)c1nc(-c2ccc(Cl)s2)nc(NC2CC2)c1Cl [Compound 262-30, 5-Chloro-2-(5-chloro-thiophen-2-yl)-4-cyclopropylamino-6-methoxycarbonyl-pyrimidine] | 0 | 0 | 0 | 0 | 0 | 0 | 10 | 90 | 50 | 0 | 80 | 10 | 
